Laboratory results taken from patent USRE47689E1, “Compounds for treating spinal muscular atrophy” (PTC Therapeutics, Inc., priority 2011, dated 2019).

What was measured:
[1] = system: SMN2 minigene (full length SMN2 minigene mRNA containing SMN2 exon 7); test: SMN2 minigene mRNA splicing RT-qPCR assay in cultured cells; format: cell-based, human; conditions: HEK293H cells stably transfected with SMN2-A minigene, 24 hours, 7-point concentration curve, 1.5-fold relative to vehicle-treated cells; for EC (1.5-fold): Homo sapiens, HEK293-H, read-out: EC1.5x for production of full length SMN2 mRNA
Description: The reverse transcription-quantitative PCR-based (RT-qPCR) assay is used to quantify the level of the full length SMN2 minigene mRNA containing SMN2 exon 7 in a HEK293H cell line stably transfected with said minigene and treated with a test compound.
Protocol. HEK293H cells stably transfected with the SMN2-A minigene construct described above (10,000 cells/well) are seeded in 200 μL of cell culture medium (DMEM plus 10% FBS, with 200 μg/mL hygromycin) in 96-well flat-bottom plates and the plate is immediately swirled to ensure proper dispersal of cells, forming an even monolayer of cells. Cells are allowed to attach for at least 4-6 hours. […] A solution of test compound (1 μL, 200× in DMSO) is added to each cell-containing well and the plate is incubated for 24 hours in a cell culture incubator (37° C., 5% CO2, 100% relative humidity). 2 replicates are prepared for each test compound concentration. The cells are then lysed in Cells-To-Ct lysis buffer and the lysate is stored at −80° C.
The combination of these three oligonucleotides detects only SMN1 or SMN2 minigenes (RT-qPCR) and will not detect endogenous SMN1 or SMN2 genes.
The SMN forward and reverse primers are used at final concentrations of 0.4 μM.
The SMN2-minigene GAPDH mix (15 μL total volume) is prepared by combining 7.5 μL of 2×RT-PCR buffer, 0.4 μL of 25×RT-PCR enzyme mix, 0.75 μL of 20×GAPDH primer-probe mix, 4.0075 μL of water, 2 μL of 10-fold diluted cell lysate, 0.06 μL of 100 μM SMN forward primer, 0.06 μL of 100 μM SMN reverse primer, and 0.225 μL of 100 μM SMN probe.
PCR is carried out at the following temperatures for the indicated time: Step 1: 48° C. (15 min); Step 2: 95° C. (10 min); Step 3: 95° C. (15 sec); Step 4: 60° C. (1 min); then repeat Steps 3 and 4 for a total of 40 cycles.
Each reaction mixture contains both SMN2-A minigene and GAPDH primers/probe sets (multiplex design), allowing simultaneous measurement of the levels of two transcripts.
Two SMN spliced products are generated from the SMN2 minigene. The first spliced product containing exon 7, corresponding to full length SMN2 mRNA, is called SMN2mini FL. The second one lacking exon 7 is called SMN2mini Δ7.
The amplification efficiency E is calculated from the slope of the amplification curve for SMN2mini FL and GAPDH individually. The abundances of SMN2mini FL and GAPDH are then calculated as […], where Ct is the threshold value for each amplicon. The abundance of SMN2mini FL is normalized to GAPDH abundance. The normalized SMN2mini FL abundance from test compound-treated samples is then divided by normalized SMN2mini FL abundance from vehicle-treated cells to determine the level of SMN2 FL mRNA relative to vehicle control.
An EC1.5x for production of full length SMN2 mRNA between >3 μM and ≤30 μM is indicated by one star (*), an EC1.5x between >1 μM and ≤3 μM is indicated by two stars (**), an EC1.5x between >0.3 μM and ≤1 μM is indicated by three stars (***), an EC1.5x between >0.1 μM and ≤0.3 μM is indicated by four stars (****) and an EC1.5x≤0.1 μM is indicated by five stars (*****).

Smn protein = Smn protein assay in cultured cells (SMN HTRF); format: cell-based, human; conditions: 48 hours; for maximum fold (Fold) increase of Smn protein: SMA patient fibroblast cells, 7-point concentration data, fold increase relative to vehicle control (SMN HTRF); for EC1.5x (concentration giving 1.5-fold Smn protein increase): SMA Type 1 patient fibroblast cells (GM03813), 7-point concentration curve, SMN HTRF, concentration producing 1.5 times Smn protein vs DMSO vehicle control, read-out: EC1.5x for Smn protein expression
Description: The SMN HTRF (homogeneous time resolved fluorescence) assay is used to quantify the level of Smn protein in SMA patient fibroblast cells treated with test compounds.
Protocol. Cells are thawed and cultured in DMEM-10% FBS for 72 hours. Cells are trypsinized, counted and resuspended to a concentration of 25,000 cells/mL in DMEM-10% FBS. […] 1 μL of test compound solution is transferred to cell-containing wells and cells are incubated for 48 hours in a cell culture incubator (37° C., 5% CO2, 100% relative humidity). Triplicate samples are set up for each test compound concentration. After 48 hours, the supernatant is removed from the wells and 25 μL of the RIPA lysis buffer, containing protease inhibitors, is added to the wells and incubated with shaking at room temperature for 1 hour. 25 μL of the diluent is added and then 35 μL of the resulting lysate is transferred to a 384-well plate, where each well contains 5 μL of the antibody solution (1:100 dilution of anti-SMN d2 and anti-SMN kryptate in SMN reconstitution buffer). The plate is centrifuged for 1 minute to bring the solution to the bottom of the wells, then incubated overnight at room temperature. Fluorescence for each well of the plate at 665 nm and 620 nm is measured on an EnVision multilabel plate reader (Perkin-Elmer).
The normalized fluorescence signal is calculated for each sample, Blank and vehicle control well by dividing the signal at 665 nm by the signal at 620 nm. Normalizing the signal accounts for possible fluorescence quenching due to the matrix effect of the lysate. The ΔF value (a measurement of Smn protein abundance) for each sample well is calculated by subtracting the normalized average fluorescence for the Blank control wells from the normalized fluorescence for each sample well and then dividing this difference by the normalized average fluorescence for the Blank control wells. The resulting ΔF value for each sample well represents the Smn protein abundance from test compound-treated samples. The ΔF value for each sample well is divided by the ΔF value for the vehicle control wells to calculate the fold increase in Smn protein abundance relative to the vehicle control.
An EC1.5x for Smn protein expression between >3 μM and ≤10 μM is indicated by one star (*), an EC1.5x between >1 and ≤3 μM is indicated by two stars (**), an EC1.5x between >0.3 μM and ≤1 μM is indicated by three stars (***) and an EC1.5x≤0.3 μM is indicated by four stars (****).

SMILES	EC (1.5-fold) [1] [µM]	maximum fold (Fold) increase of Smn protein (Smn protein)	EC1.5x (concentration giving 1.5-fold Smn protein increase) (Smn protein) [nM]	EC1.5x for production of full length SMN2 mRNA [1]
CCN1CCC(c2ccc3cc(-c4cc5c(C)nc(C)cn5n4)c(=O)oc3c2)CC1 [Cpd 853, 3-(4,6-dimethylpyrazolo[1,5-a]pyrazin-2-yl)-7-(1-ethylpiperidin-4-yl)-2H-chromen-2-one]	1 to 3	* (maximum fold increase of ≤1.2)		
C[C@H]1CN(c2ccc3cc(-c4cc5cnccc5s4)c(=O)oc3c2)CCN1 [Compound 629, 7-[(3S)-3-methylpiperazin-1-yl]-3-(thieno[3,2-c]pyridin-2-yl)-2H-chromen-2-one]	0.3 to 1	* (maximum fold increase of ≤1.2)		
COc1ccc(-c2cc3ccc(N4CCN(C)CC4)cc3oc2=O)cc1OC [Compound 317, 3-(3,4-dimethoxyphenyl)-7-(4-methylpiperazin-1-yl)-2H-chromen-2-one]	3 to 30	* (maximum fold increase of ≤1.2)		
Cc1cn2cc(-c3cc4c(F)cc(N5CCN[C@@H](C)C5)cc4oc3=O)nc2cn1 [Compound 593, 5-fluoro-3-(6-methylimidazo[1,2-a]pyrazin-2-yl)-7-[(3S)-3-methylpiperazin-1-yl]-2H-chromen-2-one]	< 0.1	***** (fold increase >1.65)	< 300	
CN(C)[C@H]1[C@@H]2CN(c3ccc4cc(-c5cn6cccnc6n5)c(=O)oc4c3)C[C@@H]21 [Compound 439, 7-[(1R,5S,6s)-6-(dimethylamino)-3-azabicyclo[3.1.0]hex-3-yl]-3-(imidazo[1,2-a]pyrimidin-2-yl)-2H-chromen-2-one]		** (fold increase between >1.2 and ≤1.35)		* (between >3 μM and ≤30 μM)
Cc1nccc(-c2cc3ccc(N4CCN(C)CC4)cc3oc2=O)n1 [Compound 297, 7-(4-methylpiperazin-1-yl)-3-(2-methylpyrimidin-4-yl)-2H-chromen-2-one]	3 to 30	* (maximum fold increase of ≤1.2)		
Cc1cn2cc(-c3cc4ccc(N5CCN[C@@H](C)C5)cc4oc3=O)cc(F)c2n1 [Compound 984, 3-(8-fluoro-2-methylimidazo[1,2-a]pyridin-6-yl)-7-[(3S)-3-methylpiperazin-1-yl]-2H-chromen-2-one]	< 0.1	***** (fold increase >1.65)	< 300	
Cc1cn2cc(-c3cc4ccc(N5C[C@@H]6CCCN(C)[C@@H]6C5)cc4oc3=O)nc2c(C)n1 [Compound 795, 3-(6,8-dimethylimidazo[1,2-a]pyrazin-2-yl)-7-[(4aS,7aS)-1-methyloctahydro-6H-pyrrolo[3,4-b]pyridin-6-yl]-2H-chromen-2-one]	< 0.1	**** (fold increase between >1.5 and ≤1.65)	< 300	
Cc1nccn2cc(-c3cc4ccc(N5CCN[C@H](C)C5)cc4oc3=O)nc12 [Compound 559, 3-(8-methylimidazo[1,2-a]pyrazin-2-yl)-7-[(3R)-3-methylpiperazin-1-yl]-2H-chromen-2-one]	0.3 to 1	*** (fold increase between >1.35 and ≤1.5)		
Cc1cc2sc(-c3cc4ccc(N5CCN(C)CC5)cc4oc3=O)cc2c(C)n1 [Compound 819, 3-(4,6-dimethylthieno[3,2-c]pyridin-2-yl)-7-(4-methylpiperazin-1-yl)-2H-chromen-2-one]	< 0.1	*** (fold increase between >1.35 and ≤1.5)		
O=c1oc2cc(N3CCNCC3)ccc2cc1-c1cn2cc(Cl)ccc2n1 [Compound 71, 3-(6-chloroimidazo[1,2-a]pyridin-2-yl)-7-(piperazin-1-yl)-2H-chromen-2-one]	1 to 3	** (fold increase between >1.2 and ≤1.35)		
Cc1cn2cc(-c3cc4ccc(N5CCC(N)CC5)cc4oc3=O)cc2c(C)n1 [Compound 714, 7-(4-aminopiperidin-1-yl)-3-(1,3-dimethylpyrrolo[1,2-a]pyrazin-7-yl)-2H-chromen-2-one]	0.1 to 0.3	* (maximum fold increase of ≤1.2)		
Cc1cc2oc(-c3cc4ccc(N5CCNCC5)cc4oc3=O)cc2c(C)n1 [Compound 831, 3-(4,6-dimethylfuro[3,2-c]pyridin-2-yl)-7-(piperazin-1-yl)-2H-chromen-2-one]	1 to 3	* (maximum fold increase of ≤1.2)		
Cc1cn2cc(-c3cc4ccc(N5CC6(CNC6)C5)cc4oc3=O)cc(F)c2n1 [Compound 985, 7-(2,6-diazaspiro[3.3]hept-2-yl)-3-(8-fluoro-2-methylimidazo[1,2-a]pyridin-6-yl)-2H-chromen-2-one]	< 0.1	***** (fold increase >1.65)	< 300	
CCc1nc(C)cn2cc(-c3cc4ccc(N5CCNCC5)cc4oc3=O)nc12 [Compound 824, 3-(8-ethyl-6-methylimidazo[1,2-a]pyrazin-2-yl)-7-(piperazin-1-yl)-2H-chromen-2-one]	< 0.1	**** (fold increase between >1.5 and ≤1.65)	< 300	
Cc1cn2cc(-c3cc4c(F)cc(N5CCN(C)[C@@H](C)C5)cc4oc3=O)nc2cn1 [Compound 659, 7-[(3S)-3,4-dimethylpiperazin-1-yl]-5-fluoro-3-(6-methylimidazo[1,2-a]pyrazin-2-yl)-2H-chromen-2-one]	< 0.1	**** (fold increase between >1.5 and ≤1.65)	< 300	
